In one series the test system is mice. To be noted: mouse, in vivo.
Series [1] relates to isolated left auricle of female guinea pigs. As to the kind of experiment: Functional refractory period prolonging and contraction force reducing action, double-stimulation method of Govier. To be noted: isolated atrium from guinea pigs; for EC (125%) / IC25: Cavia porcellus; for EC (125%): 0.3 h, 18 minutes after administration, read-out: FRP: concentration at which the functional refractory period is increased to 125%; for IC25: read-out: Force: concentration at which the contraction force is reduced to 75% of the starting value; for Force/FRP quotient of concentrations: indication of therapeutic range. From the text:
The favourable relationship between the functional refractory period prolonging action (FRP) and the contraction force reducing action (force) of the compounds can also be shown on the isolated left auricle of female guinea pigs of 300-400 g body weight by the double-stimulation method of Govier [J. Pharmakol.

The nature of the next series: Acute toxicity. The note with it: in vivo; for LD50: mouse. The text has this:
This gives a therapeutic range (=quotient LD50 .sbsb.mouse /EDmin) of 8-17.

Series [2] has as its system ventricular fibrillation caused by inhalation of chloroform. Kind of series: Inhibition of ventricular fibrillation caused by inhalation of chloroform (method of Lawson). To be noted: mice, 10 min before chloroform. Type of series: in vivo. As for the experimental part:
For example, in mice, the compounds have an inhibiting effect on ventricular fibrillation caused by inhalation of chloroform. The effect of the compounds on ventricular fibrillation in mice caused by inhalation of chloroform leading to rapid cessation of breathing is determined by the method of Lawson (J. Pharmacol. Exp. Ther. 160, 22-23).
In this experimental procedure, the minimum toxic dose can also be determined at the same time. The test substance, dissolved in 0.9% strength sodium chloride solution, is administered intraperitoneally to female mice of 17-24 g body weight. The animals are kept individually in glass beakers, where they are observed for possible toxic symptoms. Ten minutes after administration of the test substance, the animals are transferred to covered 300 ml glass beakers containing a cottonwool swab soaked with about 20 ml of chloroform. As soon as breathing begins to stop, the heart is exposed and the ventricular rhythm and rate are observed visually. The percentage of animals protected from ventricular fibrillation by the dose administered is given.
in the test described above, the compounds of formula I display antiarrhythmic actions in a dose range from 0.1 to 100 mg/kg.
The Example numbers given for the compounds of formula I relate to the preparation Exaples below.

The test system of series [3] is disorders in cardiac rhythm induced by aconitine infusion. As to the kind of experiment: Inhibition of disorders in cardiac rhythm induced by aconitine infusion (method of Raschak). The class given is in vivo, rats. To be noted: Rattus norvegicus, iv. Here is the method: The compounds also show an inhibiting action on disorders in cardiac rhythm induced by aconitine infusion [extrasystoles (ES), ventricular tachycardia (VT) and ventricular fibrillation (VF)] in rats in the experimental method of Raschak (Arzneimittelforsch. 25 (1975) 639-641). Thus, for example, the minimum effective doses of 2-[3-(N,N-diethylamino)-2-hydroxypropylaminocarbonyl]-3-methoxy-1-phenylindole on intravenous administration 5 minutes before the start of aconitine infusion are as follows: […]

Each structure is given as a SMILES string. Where two headings read alike, the source gives them in different places. Some results are limits rather than exact numbers.

What is called LD50 is the dose at which mortality reaches 50%. Lower therefore signals a more toxic substance. For `CCN(CC)CC(O)CNC(=O)c1c(OC)c2ccccc2n1-c1ccccc1` (stereo not shown) [Example 1, 2-[3-(N,N-Diethylamino)-2-hydroxypropylaminocarbonyl]-3-methoxy-1-phenylindole], the Minimum toxic dose came to 300 mg/kg in the series on mice (ip) and 100 mg/kg in the series on mice (po). For the same compound, the EC (125%) in series [1] was 3.6 µM. For the same compound, the IC25 in series [1] was 6.3 µM. Also, the “Force/FRP quotient of concentrations” value in series [1] is reported as 1.8. Also, the 50% lethal dose (LD50) in “Acute toxicity” (ip, administered intraperitoneally) was 164 µmol/kg; in “Acute toxicity” (iv, administered intravenously) it was 37.3 µmol/kg. In the series “Acute toxicity” (LD50 mouse over minimum effective dose in aconitine test, read-out: therapeutic range (=quotient LD50 mouse/EDmin)), the selectivity ratio fell in the range of 8 to 17. In addition, the “% of protected animals” value in series [2] (dose 25 mg/kg ip) is 100%. In addition, the minimal effective dose in series [3] (read-out: Minimum effective inhibiting dose, extrasystoles) was 2.15 µmol/kg; in series [3] (read-out: Minimum effective inhibiting dose, heart rate) it was greater than 12 µmol/kg; in series [3] (read-out: Minimum effective inhibiting dose, ventricular fibrillation), 4.64 µmol/kg; in series [3] (read-out: Minimum effective inhibiting dose, ventricular tachycardia), 2.15 µmol/kg.

`CN(C)CCNC(=O)c1c(O)c2ccccc2n1-c1ccc(Cl)cc1` [Example 2, 2-[2-(N,N-Dimethylamino)-ethylaminocarbonyl]-3-hydroxy-1-(4'-chlorophenyl)-indole]: the results for the Minimum toxic dose in the series with mice (ip) and in the series on mice (po) were no less than 100 mg/kg and no less than 300 mg/kg, respectively. Also, in series [2] (dose 100 mg/kg ip), the “% of protected animals” value was found to be 100%.

In the case of `COc1c(C(=O)NCCN(C)C)n(-c2ccc(Cl)cc2)c2ccccc12` [Example 15], the results for the Minimum toxic dose in the series with mice (ip) and in the series with mice (po) were no less than 100 mg/kg and no less than 300 mg/kg, respectively. Further, the “% of protected animals” value in series [2] (dose 100 mg/kg ip) came to 100%.

In the series with mice (ip), `CCN(CC)CCCNC(=O)c1c(OC)c2ccccc2n1-c1ccccc1` [Example 20] returned a Minimum toxic dose of 300 mg/kg. The compound also gave a Minimum toxic dose in the series on mice (po) of 50 mg/kg. Moreover, in series [1], the EC (125%) worked out at 0.66 µM, the IC25 stood at 3.57 µM and the “Force/FRP quotient of concentrations” value is 5.4. Also, the “% of protected animals” value in series [2] (dose 10 mg/kg ip) stood at 100%.

With `CCN(CC)CCCCNC(=O)c1c(OC)c2ccccc2n1-c1ccccc1` [Example 22], the Minimum toxic dose is 300 mg/kg in the series with mice (ip) and 50 mg/kg with mice (po). Besides, the “% of protected animals” value in series [2] (dose 10 mg/kg ip) was found to be 66.7%.

With `Cc1cccc(-n2c(C(=O)NCCN(C)C)c(O)c3ccccc32)c1C` [Example 25], the Minimum toxic dose in the series with mice (ip) was no less than 100 mg/kg; in the series with mice (po), no less than 300 mg/kg. Besides, the “% of protected animals” value in series [2] (dose 100 mg/kg ip) came out at 66.7%.

In the case of `COc1c(C(=O)NCCN(C)C)n(-c2ccccc2)c2ccc(Br)cc12` [Example 30], the Minimum toxic dose with mice (ip) is reported as no less than 300 mg/kg; with mice (po), 200 mg/kg. Besides, the “% of protected animals” value in series [2] (dose 50 mg/kg ip) was determined as 33.3%.

These data come from US4803198A, “1-Phenyl-2-aminocarbonylindole compounds, preparation thereof and pharmaceutical compositions containing them” (Kali-Chemie Pharma GmbH, priority 1981, dated 1989).
